Patent US20100323990A1, “SHIP 1 MODULATOR PRODRUGS” (THE UNIVERSITY OF BRITISH COLUMBIA, priority 2006, published 2010)

Legend:
[1] = test system: SHIP−/− bone marrow derived macrophages; assay: LPS-stimulated TNFα production in SHIP−/− bone marrow derived macrophages; format: cell-based, mice; settings: SHIP−/− cells, 15 μM, 10 ng/mL LPS 2 h
Protocol: (§1) Bone marrow cells were aspirated from 4 to 8 week old C57B16×129Sv mixed background mice and SHIP^+/+ and SHIP^−/− mast cells prepared as described previously. Bone marrow derived macrophages from SHIP^+/+ and SHIP^−/− mice were obtained and maintained in IMDM supplemented with 10% FCS, 150 μM MTG, 2% C127 cell conditioned medium as a source of macrophage colony stimulating factor (M-CSF) (macrophage medium)
LPS stimulation of macrophages. For the analysis of LPS-stimulated TNFα production, 2×10^5 cells were plated the night before in 24 well plates in macrophage medium. The next day, the medium was changed and AQX-016A or carrier was added to cells at the indicated concentrations for 30 min prior to the addition of 10 ng/mL LPS. Supernatants were collected for TNFα determination by ELISA (BD Biosciences, Mississauga, ON, Canada). For analysis of intracellular signaling, 2×10^6 cells were plated the night before in 6 cm tissue culture plates. […] Calcium influx was monitored by spectrofluorometry. […] Total cell lysates were then prepared and analyzed for phospho-PKB, phospho-p38^MAPK, phospho-MAPK, Grb-2 (Cell Signalling, Mississauga, Ont) and SHIP^6 by immunoblot analysis.
The target specificity and biological efficacy of AQX-016A were assessed by comparing AQX-016A's effects on PI3K-regulated processes in primary SHIP^+/+ vs SHIP^−/− macrophages and mast cells. […]

[2] = test system: SHIP+/+ bone marrow derived macrophages; assay: LPS-stimulated TNFα production in SHIP+/+ bone marrow derived macrophages; format: cell-based, mice; settings: SHIP+/+ cells, 15 μM, 10 ng/mL LPS 2 h
Protocol: as §1
LPS stimulation of macrophages. For the analysis of LPS-stimulated TNFα production, 2×10^5 cells were plated the night before in 24 well plates in macrophage medium. The next day, the medium was changed and AQX-016A or carrier was added to cells at the indicated concentrations for 30 min prior to the addition of 10 ng/mL LPS. Supernatants were collected for TNFα determination by ELISA (BD Biosciences, Mississauga, ON, Canada). For analysis of intracellular signaling, 2×10^6 cells were plated the night before in 6 cm tissue culture plates. The next day, the cells were cultured in macrophage medium without M-CSF for 1 hr at 37° C. and then pretreated with AQX-016A or carrier for 30 min prior to the addition of 10 ng/mL LPS for 15 min. Cells were washed with 4° C. PBS and resuspended in lysis buffer (50 mM Hepes, 2 mM EDTA, 1 mM NaVO4, 100 mM NaF, 50 mM NaPPi and 1% NP40) supplemented with Complete Protease Inhibitor Cocktail (Roche, Montreal, Canada). Lysates were rocked at 4° C. for 30 min and clarified by centrifuging 20 min at 12000×g. Lysates were then made 1× in Laemmli's buffer, boiled 2 min and loaded onto 7.5% SDS polyacrylamide […]. Immunoblot analysis for phospho PKB (Cell Signalling, Mississauga, Ont), SHIP and actin (Santa Cruz, Santa Cruz, Calif.) were carried out as described previously. Stimulation of mast cells by FcεRI crosslinking. Mast cells were pre-loaded overnight in BMMC medium lacking IL-3 with 0.1 μg/ml anti-DNP IgE (SPE-7, Sigma, Oakville, Ont). For calcium flux measurements, cells were incubated with 2 μM fura 2-acetoxymethyl ester (Molecular Probes, Eugene, Oreg.) in Tyrode's buffer at 23° C. for 45 min. Cells were then washed and incubated in the presence of vehicle control, LY294002 or AQX-016A 30 min prior to stimulation with the indicated concentration of DNP-human serum albumin (DNP-HSA). Calcium influx was monitored by spectrofluorometry. For analysis of intracellular signaling, cells were pre-loaded with anti-DNP IgE as above, pre-treated with AQX-016A or buffer control for 30 min at 37° C. and stimulated with 20 ng/ml DNP-HSA for 5 min. Total cell lysates were then prepared and analyzed for phospho-PKB, phospho-p38^MAPK, phospho-MAPK, Grb-2 (Cell Signalling, Mississauga, Ont) and SHIP^6 by immunoblot analysis.
The target specificity and biological efficacy of AQX-016A were assessed by comparing AQX-016A's effects on PI3K-regulated processes in primary SHIP^+/+ vs SHIP^−/− macrophages and mast cells. […] LPS stimulation of macrophages is associated with a PIP3-dependent release of pro-inflammatory mediators such as TNFα. The action of AQX-016A on SHIP^+/+ vs SHIP^−/− bone marrow derived macrophages was examined. Cells were pretreated for 30 min with AQX-016A prior to stimulation with 10 ng/mL of LPS for 2 h. AQX-016A was able to suppress TNFα production in SHIP^+/+ cells by 30% at 3 μM and 50% at 15 μM (FIG. 8A). […] Activation of mast cells via IgE+ antigen crosslinking of their IgE receptors results in elevation of intracellular calcium levels.

ΔC2 SHIP = biological target: T1, ΔC2 SHIP (Homo sapiens, UniProt Q92835, DEL725-863); assay: SHIP enzyme assay with C2 domain deleted SHIP; format: biochemical; settings: PI-3,4-P2 20 μM, Compound 100 3 μM, 30 μM IP4
T1 construct: His6; made in house; host or cells: mammalian expression vector pME18S
T1 sequence (Q92835 with tags, fused parts or gaps DEL725-863): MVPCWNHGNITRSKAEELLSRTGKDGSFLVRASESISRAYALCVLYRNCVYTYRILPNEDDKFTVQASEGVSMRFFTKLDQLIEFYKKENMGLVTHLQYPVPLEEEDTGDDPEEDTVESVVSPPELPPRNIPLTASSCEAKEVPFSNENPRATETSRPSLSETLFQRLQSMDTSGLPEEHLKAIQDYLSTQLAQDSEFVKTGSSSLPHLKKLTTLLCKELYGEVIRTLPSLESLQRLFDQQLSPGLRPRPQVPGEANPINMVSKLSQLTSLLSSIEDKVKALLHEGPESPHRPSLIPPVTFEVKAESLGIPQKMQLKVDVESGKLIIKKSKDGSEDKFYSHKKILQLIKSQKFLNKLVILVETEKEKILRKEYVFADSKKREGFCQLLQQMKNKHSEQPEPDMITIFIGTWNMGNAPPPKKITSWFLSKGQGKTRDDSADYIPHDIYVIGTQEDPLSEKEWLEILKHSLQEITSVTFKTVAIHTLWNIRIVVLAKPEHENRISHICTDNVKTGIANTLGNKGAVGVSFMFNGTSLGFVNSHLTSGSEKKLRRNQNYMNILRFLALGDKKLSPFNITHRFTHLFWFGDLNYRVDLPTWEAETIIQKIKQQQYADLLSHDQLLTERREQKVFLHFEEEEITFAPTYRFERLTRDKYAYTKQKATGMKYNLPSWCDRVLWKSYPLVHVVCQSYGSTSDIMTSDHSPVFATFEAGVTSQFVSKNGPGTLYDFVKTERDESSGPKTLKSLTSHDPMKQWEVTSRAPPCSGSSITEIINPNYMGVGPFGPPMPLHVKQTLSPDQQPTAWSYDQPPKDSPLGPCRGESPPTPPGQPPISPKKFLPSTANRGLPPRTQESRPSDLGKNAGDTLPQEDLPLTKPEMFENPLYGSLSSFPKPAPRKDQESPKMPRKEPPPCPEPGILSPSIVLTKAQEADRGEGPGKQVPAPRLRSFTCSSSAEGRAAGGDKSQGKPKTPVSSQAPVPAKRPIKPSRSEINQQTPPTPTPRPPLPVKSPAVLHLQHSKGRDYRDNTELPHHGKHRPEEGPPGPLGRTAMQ
Excerpt: A His6 tagged SHIP ΔC2 domain deletion mutant (deleting residues 725 to 863) in the mammalian expression vector pME18S was generated by a standard PCR-based methodology. An N-terminal His6 C2 domain construct was also generated by PCR inserted into the pET28C bacterial expression vector using EcoRI and NdeI restriction sites.
The allosteric regulation of enzymes has remained under-appreciated primarily because allosteric effectors are not easy to find. The molecular mechanism by which Compound 100 activated SHIP was investigated, first by performing classical enzyme kinetic analysis of its phosphatase activity. Activity measurements were performed with substrate concentrations from 10-100 μM.
The SHIP protein contains a C2 domain located at the carboxyterminal end of its phosphatase domain. […] SHIP lacking its the C2 domain (ΔC2 SHIP) was prepared.

SHIP enzyme = assay: In vitro SHIP enzyme assay (Assay 1), phosphate release by Malachite Green; format: biochemical; settings: PI-3,4-P2 20 μM, Compound 100 3 μM, 30 μM IP4
Protocol: (§2) Assay 1) In vitro testing in a SHIP enzyme assay. Test compounds were dissolved in a suitable solvent (e.g. EtOH, DMSO and others) and diluted into aqueous buffer (20 mM Tris HCl, pH 7.5 and 10 mM MgCl2). SHIP enzyme assays were performed in 96-well microtitre plates with 10 ng of enzyme/well in a total volume of 25 μL of 20 mM Tris HCl, pH 7.5 and 10 mM MgCl2. SHIP enzyme was incubated with test extracts (provided in solvent) or vehicle for 15 min at 23° C. before the addition of 100 μM inositol-1,3,4,5-tetrakisphosphate (Echelon Biosciences Inc, Salt Lake City, Utah). After 20 min at 37° C. and the amount of inorganic phosphate released assessed by the addition of Malachite Green reagent and absorbance measurement at 650 nm. Assay 2) Macrophage TNF-α production. J774.1a macrophage cells were treated with 10 μg/mL of test compound dissolved in solvent (e.g. cyclodextran) for 40 minutes prior to the addition of 100 ng/mL LPS. Culture supernatants were collected after 2 hr and 5 hr for TNF-α determination by ELISA. Assay 3) Macrophage TNF-α NO assay. J774.1a macrophage cells were treated with 10 μg/ml of test compound dissolved in solvent for 40 minutes prior to the addition of LPS. Culture supernatants were collected after 24 hr. for determination of NO concentration using the Griess reagent. Assay 4) Stimulation of mast cells by FcεRI crosslinking. Mast cells were pre-loaded overnight in BMMC medium lacking IL-3 with 0.1 μg/ml anti-DNP IgE (SPE-7, Sigma, Oakville, Ont). For calcium flux measurements, cells were incubated with 2 μM fura 2-acetoxymethyl ester (Molecular Probes, Eugene, Oreg.) in Tyrode's buffer at 23° C. for 45 min. Cells were then washed and incubated in the presence of the test compound 30 min prior to stimulation with the indicated concentration of DNP-human serum albumin (DNP-HSA). Calcium influx was monitored by spectrofluorometry as described previously. For analysis of intracellular signaling, cells were pre-loaded with anti-DNP IgE as above, pre-treated with the test compound for 30 min at 37° C. and stimulated with 20 ng/ml DNP-HSA for 5 min. Total cell lysates were then prepared and analyzed for phospho-PKB, phospho-p38^MAPK, phospho-MAPK, Grb-2 (Cell Signalling, Mississauga, Ont) and SHIP^6 by immunoblot analysis. Assay 5) Mouse acute cutaneous anaphylaxis model. 6-8 week old CD1 mice (University of British Columbia Animal Facility, Vancouver, BC) were sensitized to the hapten DNP by cutaneous application of 25 μL of 0.5% dinitrofluorobenzene (DNFB) (Sigma, Oakville, Ont) in acetone to the shaved abdomen of mice for two consecutive days. 24 hrs later, test substances (dissolved in 10 μL of 1:2 DMSO:MeOH) were painted on the right ear while the left ear received vehicle control. 30 min after drug application, DNFB was applied to both ears to induce mast cell degranulation. A 6 mm punch was taken from the ear and immediately frozen on dry ice for subsequent determination of neutrophil myeloperoxidase (MPO) activity. Assay 6) Mouse endotoxemia model. 6-8 week old C57B16 mice (VCHRI Mammalian Model of Human Disease Core Facility, Vancouver, BC) were orally administered the test compound 30 min prior to an IP injection of 2 mg/kg of LPS (E. Coli serotype 0111:B4, Sigma, Oakville, Ont). Blood was drawn 2 hrs later for determination of plasma TNFα by ELISA. Assay 7) In vitro Mulitple Myeloma (MM) assay. The ability of SHIP activators to reduce tumor cell survival was assessed in MM cell lines treated with the test compound. The lines OPM1, OPM2, MM.1S and RPMI 8226 were plated at a density of 1×10^5 cells/mL in 200 μL of medium with various concentrations of the test compound, and viable cell numbers were determined on day 3 and day 5 by trypan blue exclusion. The lines RPMI 8226 and U266 were plated at a density of 1×10^6 cells/mL in 250 μL of medium with various concentrations of the test compound. At day 4, the medium of each culture was replaced by fresh medium containing the same concentration of test compound. […]

J774.1a macrophage cells [3] = assay: Macrophage TNF-α NO assay (Assay 3), Griess reagent; format: cell-based; settings: 10 μg/ml test compound, LPS, supernatants after 24 hr; also: key: a ‘+’ indicates a positive result for desired activity; a ‘−’ indicates a negative result for desired activity
Protocol: as §2

J774.1a macrophage cells [4] = assay: Macrophage TNF-α production (Assay 2); format: cell-based; settings: 10 μg/mL test compound, 100 ng/mL LPS, supernatants after 2 hr and 5 hr; also: key: a ‘+’ indicates a positive result for desired activity; a ‘−’ indicates a negative result for desired activity
Protocol: as §2

J774.1 macrophage cells = assay: TNFα production in LPS-stimulated J774.1 macrophages (Example 9); format: cell-based; settings: 2 ng/mL LPS
Protocol: An assay to determine the relative inhibition of TNFα production by Compound 103 compared to Compound 100 was conducted as follows.
J774.1 macrophage cells were plated at 2×10^5 cells/well in 24 well plates. The next day the media was changed and Compound 100, Compound 103 or cyclodextrin carrier were added to the wells at the indicated concentrations for 30 min prior to stimulation of the cells with 2 ng/mL lipopolysaccharide (LPS). LPS activation of macrophages leads to production of TNF alpha which can be detected in the culture supernatant and quantified by ELISA. The results are depicted in a graph in FIG. 1.

## O=c1cc(N2CCOCC2)oc2c(-c3ccccc3)cccc12 [LY294002, reference compound]
[1]
  suppression of TNFα production: ~40%
[2]
  suppression of TNFα production: ~40%

## CCCCCCCCCCCCCCCC(=O)OC[C@H](COP(=O)(O)O[C@H]1[C@H](O)[C@@H](O)[C@H](OP(=O)(O)O)[C@@H](OP(=O)(O)O)[C@H]1O)OC(=O)CCCCCCCCCCCCCCC [PI-3,4-P2, reference compound]
ΔC2 SHIP
  enhancement of ΔC2 SHIP activity: could not be enhanced
SHIP enzyme
  activation of wild-type SHIP enzyme: activated wild-type SHIP enzyme to a similar extent as Compound 100

## Cc1cc(OC(=O)CN)cc2c1[C@]1(C)CCC3C(C)(C)CCC[C@]3(C)[C@H]1C2 (stereo partly shown) [Compound 103]
J774.1a macrophage cells [3]
  Assay 3: Macrophage NO assay, desired activity: +
J774.1a macrophage cells [4]
  Assay 2: Macrophage TNF-α production, desired activity: +
J774.1 macrophage cells
  relative inhibition of TNFα production: Inhibits TNF Alpha Production Better than Compound 100
